Legend:
Assay in all cases: Test C pre-/postemergence greenhouse test, plant response rating 0-100
Assay type in all cases: in vivo
[1] = test system: pigweed (Amaranthus retroflexus); details: Postemergence; for Plant response rating, Pigweed: scale 0 to 100
Summary of the method: (§1)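 Visual 0–100 control scores, taken 13 to 15 days post-application in a greenhouse, reflect treatment preemergence (seed in loam soil with sand) or postemergence (2–18 cm plants in peat moss, vermiculite medium). A dash marks no result.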

[2] = test system: Italian ryegrass (Lolium multiflorum); details: Postemergence; for Plant response rating, Ryegrass, Italian: scale 0 to 100
Summary of the method: as §1

[3] = test system: galium (catchweed bedstraw, Galium aparine); details: Postemergence; for Plant response rating, Galium: scale 0 to 100
Summary of the method: as §1

[4] = test system: lambsquarters (Chenopodium album); details: Postemergence; for Plant response rating, Lambsquarters: scale 0 to 100
Summary of the method: as §1

[5] = test system: yellow nutsedge (Cyperus esculentus); details: Postemergence; for Plant response rating, Nutsedge, Yellow: scale 0 to 100
Summary of the method: as §1

[6] = test system: large (Lg) crabgrass (Digitaria sanguinalis); details: Postemergence; for Plant response rating, Crabgrass, Large: scale 0 to 100
Summary of the method: as §1

[7] = test system: velvetleaf (Abutilon theophrasti); details: Postemergence; for Plant response rating, Velvetleaf: scale 0 to 100
Summary of the method: as §1

[8] = test system: winter wheat (Triticum aestivum); details: Postemergence; for Plant response rating, Wheat: scale 0 to 100
Summary of the method: as §1

[9] = test system: johnsongrass (Sorghum halepense); details: Postemergence; for Plant response rating, Johnsongrass: scale 0 to 100
Summary of the method: as §1

[10] = test system: soybean (Glycine max); details: Postemergence; for Plant response rating, Soybean: scale 0 to 100
Summary of the method: as §1

[11] = test system: morningglory (Ipomoea coccinea); details: Postemergence; for Plant response rating, Morningglory: scale 0 to 100
Summary of the method: as §1

[12] = test system: corn (Zea mays); details: Postemergence; for Plant response rating, Corn: 250 g ai/ha, scale 0 to 100
Summary of the method: as §1

[13] = test system: giant foxtail (Setaria faberii); details: Postemergence; for Plant response rating, Foxtail, Giant: scale 0 to 100
Summary of the method: as §1

CCn1cc(C(=O)c2cccs2)c(-c2cc(Cl)cc(Cl)c2)n1 [Compound 18]
Plant response rating (0 to 100), Pigweed ([1]; 62 g ai/ha): 85 | Plant response rating (0 to 100), Pigweed ([1]; 125 g ai/ha): 100 | Plant response rating, Pigweed ([1]; 250 g ai/ha): 100 | Plant response rating, Pigweed ([1]; 500 g ai/ha): 100 | Plant response rating (0 to 100), Ryegrass, Italian ([2]; 62 g ai/ha): 0 | Plant response rating (0 to 100), Ryegrass, Italian ([2]; 125 g ai/ha): 0 | Plant response rating, Ryegrass, Italian ([2]; 250 g ai/ha): 0 | Plant response rating, Ryegrass, Italian ([2]; 500 g ai/ha): 5 | Plant response rating (0 to 100), Galium ([3]; 62 g ai/ha): 0 | Plant response rating (0 to 100), Galium ([3]; 125 g ai/ha): 0 | Plant response rating, Galium ([3]; 250 g ai/ha): 0 | Plant response rating, Galium ([3]; 500 g ai/ha): 35 | Plant response rating (0 to 100), Lambsquarters ([4]; 62 g ai/ha): 60 | Plant response rating (0 to 100), Lambsquarters ([4]; 125 g ai/ha): 85 | Plant response rating, Lambsquarters ([4]; 250 g ai/ha): 85 | Plant response rating, Lambsquarters ([4]; 500 g ai/ha): 90 | Plant response rating (0 to 100), Nutsedge, Yellow ([5]; 62 g ai/ha): 0 | Plant response rating (0 to 100), Nutsedge, Yellow ([5]; 125 g ai/ha): 0 | Plant response rating, Nutsedge, Yellow ([5]; 250 g ai/ha): 5 | Plant response rating, Nutsedge, Yellow ([5]; 500 g ai/ha): 5 | Plant response rating (0 to 100), Crabgrass, Large ([6]; 62 g ai/ha): 5 | Plant response rating (0 to 100), Crabgrass, Large ([6]; 125 g ai/ha): 5 | Plant response rating, Crabgrass, Large ([6]; 250 g ai/ha): 15 | Plant response rating, Crabgrass, Large ([6]; 500 g ai/ha): 20 | Plant response rating (0 to 100), Velvetleaf ([7]; 62 g ai/ha): 50 | Plant response rating (0 to 100), Velvetleaf ([7]; 125 g ai/ha): 65 | Plant response rating, Velvetleaf ([7]; 250 g ai/ha): 70 | Plant response rating, Velvetleaf ([7]; 500 g ai/ha): 80 | Plant response rating (0 to 100), Wheat ([8]; 62 g ai/ha): 0 | Plant response rating (0 to 100), Wheat ([8]; 125 g ai/ha): 0 | Plant response rating, Wheat ([8]; 250 g ai/ha): 0 | Plant response rating, Wheat ([8]; 500 g ai/ha): 5 | Plant response rating (0 to 100), Johnsongrass ([9]; 62 g ai/ha): 0 | Plant response rating, Johnsongrass ([9]; 250 g ai/ha): 0 | Plant response rating, Johnsongrass ([9]; 500 g ai/ha): 5 | Plant response rating (0 to 100), Soybean ([10]; 62 g ai/ha): 5 | Plant response rating (0 to 100), Soybean ([10]; 125 g ai/ha): 15 | Plant response rating, Soybean ([10]; 250 g ai/ha): 20 | Plant response rating, Soybean ([10]; 500 g ai/ha): 20 | Plant response rating (0 to 100), Morningglory ([11]; 62 g ai/ha): 5 | Plant response rating (0 to 100), Morningglory ([11]; 125 g ai/ha): 10 | Plant response rating, Morningglory ([11]; 250 g ai/ha): 20 | Plant response rating, Morningglory ([11]; 500 g ai/ha): 45 | Plant response rating (0 to 100), Corn ([12]; 125 g ai/ha): 5 | Plant response rating, Corn [12]: 10 | Plant response rating (0 to 100), Foxtail, Giant ([13]; 62 g ai/ha): 5 | Plant response rating (0 to 100), Foxtail, Giant ([13]; 125 g ai/ha): 10 | Plant response rating, Foxtail, Giant ([13]; 250 g ai/ha): 15 | Plant response rating, Foxtail, Giant ([13]; 500 g ai/ha): 20

CCn1cc(C(=NN2CCCC2)c2ccccc2)c(-c2cc(Cl)cc(Cl)c2)n1 [Compound 37]
Plant response rating (0 to 100), Pigweed ([1]; 62 g ai/ha): 75 | Plant response rating (0 to 100), Pigweed ([1]; 125 g ai/ha): 80 | Plant response rating, Pigweed ([1]; 250 g ai/ha): 100 | Plant response rating (0 to 100), Ryegrass, Italian ([2]; 62 g ai/ha): 0 | Plant response rating (0 to 100), Ryegrass, Italian ([2]; 125 g ai/ha): 0 | Plant response rating, Ryegrass, Italian ([2]; 250 g ai/ha): 0 | Plant response rating (0 to 100), Galium ([3]; 31 g ai/ha): 0 | Plant response rating (0 to 100), Galium ([3]; 62 g ai/ha): 0 | Plant response rating (0 to 100), Galium ([3]; 125 g ai/ha): 0 | Plant response rating, Galium ([3]; 250 g ai/ha): 0 | Plant response rating (0 to 100), Lambsquarters ([4]; 62 g ai/ha): 45 | Plant response rating (0 to 100), Lambsquarters ([4]; 125 g ai/ha): 55 | Plant response rating, Lambsquarters ([4]; 250 g ai/ha): 65 | Plant response rating (0 to 100), Nutsedge, Yellow ([5]; 62 g ai/ha): 10 | Plant response rating (0 to 100), Nutsedge, Yellow ([5]; 125 g ai/ha): 10 | Plant response rating, Nutsedge, Yellow ([5]; 250 g ai/ha): 10 | Plant response rating (0 to 100), Crabgrass, Large ([6]; 31 g ai/ha): 10 | Plant response rating (0 to 100), Crabgrass, Large ([6]; 62 g ai/ha): 10 | Plant response rating (0 to 100), Crabgrass, Large ([6]; 125 g ai/ha): 10 | Plant response rating, Crabgrass, Large ([6]; 250 g ai/ha): 10 | Plant response rating (0 to 100), Velvetleaf ([7]; 62 g ai/ha): 75 | Plant response rating (0 to 100), Velvetleaf ([7]; 125 g ai/ha): 80 | Plant response rating, Velvetleaf ([7]; 250 g ai/ha): 98 | Plant response rating (0 to 100), Wheat ([8]; 62 g ai/ha): 0 | Plant response rating (0 to 100), Wheat ([8]; 125 g ai/ha): 0 | Plant response rating, Wheat ([8]; 250 g ai/ha): 0 | Plant response rating (0 to 100), Johnsongrass ([9]; 62 g ai/ha): 0 | Plant response rating (0 to 100), Johnsongrass ([9]; 125 g ai/ha): 0 | Plant response rating, Johnsongrass ([9]; 250 g ai/ha): 0 | Plant response rating (0 to 100), Soybean ([10]; 62 g ai/ha): 5 | Plant response rating (0 to 100), Soybean ([10]; 125 g ai/ha): 5 | Plant response rating, Soybean ([10]; 250 g ai/ha): 5 | Plant response rating (0 to 100), Morningglory ([11]; 62 g ai/ha): 0 | Plant response rating (0 to 100), Morningglory ([11]; 125 g ai/ha): 0 | Plant response rating, Morningglory ([11]; 250 g ai/ha): 0 | Plant response rating (0 to 100), Corn ([12]; 31 g ai/ha): 0 | Plant response rating (0 to 100), Corn ([12]; 62 g ai/ha): 0 | Plant response rating (0 to 100), Corn ([12]; 125 g ai/ha): 5 | Plant response rating, Corn [12]: 5 | Plant response rating (0 to 100), Foxtail, Giant ([13]; 31 g ai/ha): 0 | Plant response rating (0 to 100), Foxtail, Giant ([13]; 62 g ai/ha): 0 | Plant response rating (0 to 100), Foxtail, Giant ([13]; 125 g ai/ha): 25 | Plant response rating, Foxtail, Giant ([13]; 250 g ai/ha): 25

— US10167262B2, “Herbicidal substituted 3-arylpyrazoles” (FMC CORPORATION, priority 2014, dated 2019)
